Test system: AR / CBP ternary complex
Assay: Ternary complex formation assay (sandwich ELISA, AR capture / CBP detection) in VCaP cell lysates
Type: cell-based
Conditions: 1.5 hours treatment, sandwich ELISA (AR capture, CBP or p300 detection)
Procedure, shortened: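 Anti-AR (AR 441)-coated plates capture AR from lysates of VCaP cells grown ≥3 days at 50K/well in 5% charcoal-stripped FBS, dosed with bifunctional for 1.5 h and lysed 30 min at 4 °C. Co-captured CBP/p300 is probed with rabbit mAb and HRP anti-rabbit, then QuantaRed fluorescence (570/585) is read at 0, 5 and 15 min.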

SMILES | EC50 [nM]
CC(=O)N1CCc2c(c(N3CCCc4cc(-c5cn(C)cn5)c(C(F)F)cc43)nn2C2CCN(CC3C(C)CN(c4ncc(C(=O)NC5C(C)(C)C(Oc6ccc(C#N)c(Cl)c6)C5(C)C)cn4)CC3C)CC2)C1 (stereo not drawn) [Compound 425, 2-[4-[[4-[5-acetyl-3-[7-(difluoromethyl)-6-(1-methylimidazol-4-yl)-3,4-dihydro-2H-quinolin-1-yl]-6,7-dihydro-4H-pyrazolo[4,3-c]pyridin-1-yl]-1-piperidyl]methyl]-3,5-dimethyl-1-piperidyl]-N-[3-(3-chloro-4-cyano-phenoxy)-2,2,4,4-tetramethyl-cyclobutyl]pyrimidine-5-carboxamide] | < 1
CC(=O)N1CCc2c(c(N3CCCc4cc(-c5cncs5)c(C(F)F)cc43)nn2C2CCN(CC3C(C)CN(c4ncc(C(=O)NC5C(C)(C)C(Oc6ccc(C#N)c(Cl)c6)C5(C)C)cn4)CC3C)CC2)C1 (stereo not drawn) [Compound 422, 2-[4-[[4-[5-acetyl-3-[7-(difluoromethyl)-6-thiazol-5-yl-3,4-dihydro-2H-quinolin-1-yl]-6,7-dihydro-4H-pyrazolo[4,3-c]pyridin-1-yl]-1-piperidyl]methyl]-3,5-dimethyl-1-piperidyl]-N-[3-(3-chloro-4-cyano-phenoxy)-2,2,4,4-tetramethyl-cyclobutyl]pyrimidine-5-carboxamide] | < 1
CC(=O)N1CCc2c(c(N3CCCc4cc(-c5cnn(C)c5)c(C(F)F)cc43)nn2C2CCN(C(=O)C3CCN(c4ccc(C(=O)NC5C(C)(C)C(Oc6ccc(C#N)c(Cl)c6)C5(C)C)cc4)CC3)CC2)C1 (stereo not drawn) [Compound 116, 4-[4-[4-[5-acetyl-3-[7-(difluoromethyl)-6-(1-methylpyrazol-4-yl)-3,4-dihydro-2H-quinolin-1-yl]-6,7-dihydro-4H-pyrazolo[4,3-c]pyridin-1-yl]piperidine-1-carbonyl]-1-piperidyl]-N-[3-(3-chloro-4-cyano-phenoxy)-2,2,4,4-tetramethyl-cyclobutyl]benzamide] | > 100
CNC(=O)N1CCc2c(c(N3CCCc4cc(-c5cnn(C)c5)c(C(F)F)cc43)nn2C2CCN(CCOCc3ncc(C(=O)NC4C(C)(C)C(Oc5ccc(C#N)c(Cl)c5)C4(C)C)cn3)CC2)C1 (stereo not drawn) [Compound 86, 1-[1-[2-[[5-[[3-(3-chloro-4-cyano-phenoxy)-2,2,4,4-tetramethyl-cyclobutyl]carbamoyl]pyrimidin-2-yl]methoxy]ethyl]-4-piperidyl]-3-[7-(difluoromethyl)-6-(1-methylpyrazol-4-yl)-3,4-dihydro-2H-quinolin-1-yl]-N-methyl-6,7-dihydro-4H-pyrazolo[4,3-c]pyridine-5-carboxamide] | > 100
COc1cc(OC2C(C)(C)C(NC(=O)c3ccc(N4CCC5(CCC(n6nc(N7CCCc8cc(-c9cnn(C)c9)c(C(F)F)cc87)c7c6CCN(C(C)=O)C7)CC5)C4)cc3)C2(C)C)ccc1C#N (stereo not drawn) [Compound 405, 4-[8-[5-acetyl-3-[7-(difluoromethyl)-6-(1-methylpyrazol-4-yl)-3,4-dihydro-2H-quinolin-1-yl]-6,7-dihydro-4H-pyrazolo[4,3-c]pyridin-1-yl]-2-azaspiro[4.5]decan-2-yl]-N-[3-(4-cyano-3-methoxy-phenoxy)-2,2,4,4-tetramethyl-cyclobutyl]benzamide] | 10 to 100
CC(=O)N1CCc2c(c(N3CCCc4cc(-c5cnn(C)c5)c(C(F)F)cc43)nn2C2CCN(CC3CCN(c4ccc(C(=O)NC5C(C)(C)C(Oc6ccc(C#N)c(Cl)c6)C5(C)C)nn4)CC3)CC2)C1 (stereo not drawn) [Compound 117, 6-[4-[[4-[5-acetyl-3-[7-(difluoromethyl)-6-(1-methylpyrazol-4-yl)-3,4-dihydro-2H-quinolin-1-yl]-6,7-dihydro-4H-pyrazolo[4,3-c]pyridin-1-yl]-1-piperidyl]methyl]-1-piperidyl]-N-[3-(3-chloro-4-cyano-phenoxy)-2,2,4,4-tetramethyl-cyclobutyl]pyridazine-3-carboxamide] | 1 to 10
CC(=O)N1CCc2c(c(-c3cccc4cc(-c5cnn(CCOC6CCN(c7ncc(C(=O)NC8C(C)(C)C(Oc9ccc(C#N)c(Cl)c9)C8(C)C)cn7)CC6)c5)ncc34)nn2C2CCOCC2)C1 (stereo not drawn) [Compound 138, 2-[4-[2-[4-[8-(5-acetyl-1-tetrahydropyran-4-yl-6,7-dihydro-4H-pyrazolo[4,3-c]pyridin-3-yl)-3-isoquinolyl]pyrazol-1-yl]ethoxy]-1-piperidyl]-N-[3-(3-chloro-4-cyano-phenoxy)-2,2,4,4-tetramethyl-cyclobutyl]pyrimidine-5-carboxamide] | < 1
CC(=O)N1CCc2c(c(-c3cccc4cc(-c5ccc(CC6CCN(c7ncc(C(=O)NC8C(C)(C)C(Oc9ccc(C#N)c(Cl)c9)C8(C)C)cn7)CC6)nc5)ncc34)nn2C2CCOCC2)C1 (stereo not drawn) [Compound 140, 2-[4-[[5-[8-(5-acetyl-1-tetrahydropyran-4-yl-6,7-dihydro-4H-pyrazolo[4,3-c]pyridin-3-yl)-3-isoquinolyl]-2-pyridyl]methyl]-1-piperidyl]-N-[3-(3-chloro-4-cyano-phenoxy)-2,2,4,4-tetramethyl-cyclobutyl]pyrimidine-5-carboxamide] | < 1
COc1cc(OC2C(C)(C)C(NC(=O)c3ccc(N4CC5(CCC(N6CCC(n7nc(N8CCCc9cc(C#N)c(C(F)F)cc98)c8c7CCN(C(C)=O)C8)CC6)CC5)C4)cc3)C2(C)C)ccc1C#N (stereo not drawn) [Compound 452, 4-[7-[4-[5-acetyl-3-[6-cyano-7-(difluoromethyl)-3,4-dihydro-2H-quinolin-1-yl]-6,7-dihydro-4H-pyrazolo[4,3-c]pyridin-1-yl]-1-piperidyl]-2-azaspiro[3.5]nonan-2-yl]-N-[3-(4-cyano-3-methoxy-phenoxy)-2,2,4,4-tetramethyl-cyclobutyl]benzamide] | < 1
CC(=O)N1CCc2c(c(N3CCCc4cc(-c5cnn(C)c5)c(C(F)F)cc43)nn2C2CCC(N3CCN(c4ncc(C(=O)NC5C(C)(C)C(Oc6ccc(C#N)c(Cl)c6)C5(C)C)cn4)CC3)CC2)C1 (stereo not drawn) [Compound 391, 2-[4-[4-[5-acetyl-3-[7-(difluoromethyl)-6-(1-methylpyrazol-4-yl)-3,4-dihydro-2H-quinolin-1-yl]-6,7-dihydro-4H-pyrazolo[4,3-c]pyridin-1-yl]cyclohexyl]piperazin-1-yl]-N-[3-(3-chloro-4-cyano-phenoxy)-2,2,4,4-tetramethyl-cyclobutyl]pyrimidine-5-carboxamide] | < 1
COc1cc(OC2C(C)(C)C(NC(=O)c3ccc(N4CC(C)C(CN5CCC(n6nc(-c7cccc8cc(-c9cnn(C)c9)ncc78)c7c6CCN(C(C)=O)C7)CC5)C(C)C4)cc3)C2(C)C)ccc1C#N (stereo not drawn) [Compound 441, 4-[4-[[4-[5-acetyl-3-[3-(1-methylpyrazol-4-yl)-8-isoquinolyl]-6,7-dihydro-4H-pyrazolo[4,3-c]pyridin-1-yl]-1-piperidyl]methyl]-3,5-dimethyl-1-piperidyl]-N-[3-(4-cyano-3-methoxy-phenoxy)-2,2,4,4-tetramethyl-cyclobutyl]benzamide] | < 1
COc1cc(OC2C(C)(C)C(NC(=O)c3ccc(N4CC(N5CCCC6(CCC(n7nc(N8CCCc9cc(-c%10cnn(C)c%10)c(C(F)F)cc98)c8c7CCN(C(C)=O)C8)CC6)C5)C4)cc3)C2(C)C)ccc1C#N (stereo not drawn) [Compound 416, 4-[3-[9-[5-acetyl-3-[7-(difluoromethyl)-6-(1-methylpyrazol-4-yl)-3,4-dihydro-2H-quinolin-1-yl]-6,7-dihydro-4Hpyrazolo[4,3-c]pyridin-1-yl]-2-azaspiro[5.5]undecan-2-yl]azetidin-1-yl]-N-[3-(4-cyano-3-methoxy-phenoxy)-2,2,4,4-tetramethyl-cyclobutyl]benzamide] | 1 to 10
